According to patent US20180127374A1, “BE[…] AS OPIOID RECEPTORS MODULATORS” (Purdue Pharma L.P., priority 2012, published 2018):
Read-outs that look alike come from different tables or passages of the source.

Columns and labels:
μ-opioid receptor [1] = target: T1, μ-opioid receptor (Homo sapiens, UniProt P35372); experiment: μ-opioid receptor radioligand dose-displacement binding assay
Description: Radioligand dose-displacement binding assays for μ-opioid receptors used 0.3 nM [^3H]-diprenorphine (Perkin Elmer, Shelton, Conn.), with […] membrane protein/well in a final volume of […] binding buffer (10 mM MgCl2, 1 mM EDTA, 5% DMSO, 50 mM HEPES, pH 7.4). Reactions were carried out in the absence or presence of increasing concentrations of unlabeled naloxone. All reactions were conducted in 96-deep well polypropylene plates for 2 hr at room temperature. […] The data were analyzed using the one-site competition curve fitting functions in GraphPad PRISM™ v. 3.0 or higher (San Diego, Calif.), or an in-house function for one-site competition curve-fitting.
Target sequence in this assay (P35372 whole entry): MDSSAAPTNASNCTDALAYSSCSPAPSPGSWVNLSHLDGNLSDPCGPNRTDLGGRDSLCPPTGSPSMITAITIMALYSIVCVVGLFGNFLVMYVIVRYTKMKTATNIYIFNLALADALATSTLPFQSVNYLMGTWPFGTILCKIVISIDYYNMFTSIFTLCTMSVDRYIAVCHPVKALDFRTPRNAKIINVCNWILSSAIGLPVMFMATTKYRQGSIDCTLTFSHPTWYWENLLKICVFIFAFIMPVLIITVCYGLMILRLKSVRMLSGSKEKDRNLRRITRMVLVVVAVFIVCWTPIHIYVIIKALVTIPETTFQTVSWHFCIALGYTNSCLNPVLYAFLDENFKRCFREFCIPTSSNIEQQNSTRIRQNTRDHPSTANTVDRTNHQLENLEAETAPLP

κ opioid receptor [2] = target: T2, κ opioid receptor (Homo sapiens, UniProt P41145); experiment: κ-opioid receptor [35S]GTPγS functional assay; format: biochemical; design: expressed in transfected cells; settings: for Emax: relative to the effect elicited by U69,593
Description: (§1) Functional [^35S]GTPγS binding assays were conducted as follows. κ opioid receptor membrane solution was prepared by sequentially adding final concentrations of 0.026 μg/μl κ membrane protein (in-house), 10 μg/mL saponin, 3 μM GDP and 0.20 nM [^35S]GTPγS to binding buffer (100 mM NaCl, 10 mM MgCl2, 20 mM HEPES, pH 7.4) on ice. The prepared membrane solution (190 μl/well) was transferred to 96-shallow well polypropylene plates containing 10 μl of 20× concentrated stock solutions of agonist prepared in DMSO. Plates were incubated for 30 min at a temperature of about 25° C. with shaking.
κ GTP EC50 is the concentration of a compound providing 50% of the maximal response for the compound at a κ receptor.
κ GTP Emax (%) is the maximal effect elicited by a compound relative to the effect elicited by U69,593.

κ opioid receptor [3] = target: T2, κ opioid receptor; experiment: κ-opioid receptor radioligand dose displacement binding assay; design: expressed in transfected cells; host or cells: HEK-293
Description: Membranes from recombinant HEK-293 cells expressing the human κ opioid receptor (κ) (cloned in house) were prepared by lysing cells in ice cold hypotonic buffer (2.5 mM MgCl2, 50 mM HEPES, pH 7.4) (10 mL/10 cm dish) followed by homogenization with a tissue grinder/Teflon pestle. Membranes were collected by centrifugation at 30,000×g for 15 min at 4° C. and pellets were resuspended in hypotonic buffer to a final concentration of 1-3 mg/mL. Protein concentrations were determined using the BioRad protein assay reagent with bovine serum albumen as standard. Aliquots of κ receptor membranes were stored at […]

δ opioid receptor [4] = target: T3, δ opioid receptor (Homo sapiens, UniProt P41143); experiment: δ-opioid receptor radioligand dose-displacement binding assay
Description: δ-opioid Receptor Binding Assay Procedures were conducted as follows. Radioligand dose-displacement assays used 0.3 nM [^3H]-Naltrindole (Perkin Elmer, Shelton, Conn.; 33.0 Ci/mmole) with 5 μg membrane protein (Perkin Elmer, Shelton, Conn.) in a final volume of 500 μl binding buffer (5 mM MgCl2, 5% DMSO, 50 mM Trizma base, pH 7.4). Non-specific binding was determined in the presence of 25 μM unlabeled naloxone. All reactions were performed in 96-deep well polypropylene plates for 1 hr at a temperature of about 25° C. Binding reactions were terminated by rapid filtration onto 96-well Unifilter GF/C filter plates (Perkin Elmer, Shelton, Conn.) presoaked in 0.5% polyethylenimine (Sigma). Harvesting was performed using a 96-well tissue harvester (Perkin Elmer, Shelton, Conn.) followed by five filtration washes with 500 μl ice-cold binding buffer. Filter plates were subsequently dried at 50° C. for 1-2 hours. Fifty μl/well scintillation cocktail (Perkin Elmer, Shelton, Conn.) was added and plates were counted in a Packard Top-Count for 1 min/well.

μ-opioid receptor [5] = target: T1, μ-opioid receptor; experiment: μ-opioid receptor [35S]GTPγS functional assay; format: biochemical; design: purchased Perkin Elmer, Shelton, Conn; settings: for Emax: relative to the effect elicited by DAMGO
Description: [^35S]GTPγS functional assays were conducted using freshly thawed μ-receptor membranes (Perkin Elmer, Shelton, Conn.). Assay reactions were prepared by sequentially adding the following reagents to binding buffer (100 mM NaCl, 10 mM MgCl2, 20 mM HEPES, pH 7.4) on ice (final concentrations indicated): membrane protein (0.026 mg/mL), saponin ([…]), GDP ([…]) and [^35S]GTPγS (0.20 nM; Perkin Elmer, Shelton, Conn.). The prepared membrane solution (190 μl/well) was transferred to 96-shallow well polypropylene plates containing 10 μI of 20× concentrated stock solutions of the agonist [D-Ala^e, N-methyl-Phe^4 Gly-ol^5]-enkephalin (DAMGO) prepared in dimethyl sulfoxide (DMSO). Plates were incubated for 30 min at about 25° C. with shaking. […] Data were analyzed using the sigmoidal dose-response curve fitting functions in GraphPad PRISM v. 3.0, or an in-house function for non-linear, sigmoidal dose-response curve-fitting.
μ GTP EC50 is the concentration of a compound providing 50% of the maximal response for the compound at a μ-opioid receptor.
μ GTP Emax (%) is the maximal effect elicited by a compound relative to the effect elicited by DAMGO, a standard μ agonist. Generally, the μ GTP Emax (%) value measures the efficacy of a compound to treat or prevent pain or other Conditions.
Target sequence in this assay (P35372 whole entry, species assumed): as the sequence (P35372 whole entry) above

δ opioid receptor [6] = target: T3, δ opioid receptor; experiment: δ-opioid receptor [35S]GTPγS functional assay; format: biochemical; design: purchased Perkin Elmer, Shelton, Conn; settings: for Emax: relative to the effect elicited by met-enkephalin; for EC50: δ membrane protein
Description: as §1, with “δ” for “κ”, “(Perkin Elmer, Shelton, Conn.),” for “(in-house),”, “[…]” for “10 μl”
δ GTP EC50 is the concentration of a compound providing 50% of the maximal response for the compound at a δ receptor.
δ GTP Emax (%) is the maximal effect elicited by a compound relative to the effect elicited by met-enkephalin. […] In another embodiment, the Compounds of the Invention will have a δ GTP Emax (%) of about 100% or greater.

[7] = [3H]-diprenorphine displacement, read-out: Ki (nM) Opioid Receptor μ
[8] = κ membrane protein (in-house), read-out: GTPγS κ EC50
[9] = μ-receptor membranes, read-out: GTPγS μ EC50
[10] = [3H]-U69,593 displacement, HEK-293 membranes, read-out: Ki (nM) Opioid Receptor κ
[11] = μ-receptor membranes, μM, read-out: GTPγS μ EC50

T2 sequence (P41145 whole entry): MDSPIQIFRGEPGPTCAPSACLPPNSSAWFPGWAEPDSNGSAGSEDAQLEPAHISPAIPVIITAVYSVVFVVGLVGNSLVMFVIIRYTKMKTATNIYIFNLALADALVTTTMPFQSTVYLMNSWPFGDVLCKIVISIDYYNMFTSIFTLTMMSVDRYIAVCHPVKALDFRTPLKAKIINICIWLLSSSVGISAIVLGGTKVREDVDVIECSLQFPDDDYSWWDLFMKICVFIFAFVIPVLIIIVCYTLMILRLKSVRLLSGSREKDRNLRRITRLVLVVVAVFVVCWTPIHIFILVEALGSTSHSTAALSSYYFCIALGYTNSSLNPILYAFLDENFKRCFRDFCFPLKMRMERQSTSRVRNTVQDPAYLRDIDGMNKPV
T3 sequence (P41143 whole entry): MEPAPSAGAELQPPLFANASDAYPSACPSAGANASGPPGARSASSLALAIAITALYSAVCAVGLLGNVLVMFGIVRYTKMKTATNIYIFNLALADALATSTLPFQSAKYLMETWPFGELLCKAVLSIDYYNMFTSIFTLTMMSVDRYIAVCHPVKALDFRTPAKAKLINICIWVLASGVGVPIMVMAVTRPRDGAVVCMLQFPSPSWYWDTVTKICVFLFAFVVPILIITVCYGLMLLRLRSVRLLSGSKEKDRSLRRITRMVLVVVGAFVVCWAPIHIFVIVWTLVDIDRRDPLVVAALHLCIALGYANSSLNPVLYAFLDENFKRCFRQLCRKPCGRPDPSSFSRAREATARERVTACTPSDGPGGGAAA

SMILES	Ki (μ-opioid receptor [1]) [nM]	EC50 (κ opioid receptor [2]) [µM]	Emax (κ opioid receptor [2]) [%]	Ki (κ opioid receptor [3]) [nM]	Ki (δ opioid receptor [4]) [µM]	Ki (μ-opioid receptor [1]; [7]) [nM]	EC50 (κ opioid receptor [2]; [8]) [µM]	Emax (μ-opioid receptor [5]) [%]	EC50 (μ-opioid receptor [5]; [9]) [µM]	Emax (δ opioid receptor [6]) [%]	EC50 (δ opioid receptor [6]) [µM]	Ki (κ opioid receptor [3]; [10]) [nM]	EC50 (μ-opioid receptor [5]) [µM]	EC50 (μ-opioid receptor [5]; [11]) [µM]
COc1ccc2c(c1)[C@@]1(CCCCO)CCN(CC3CC3)C(C2)[C@@H]1C [Compound 13, 4-((6S,11R)-3-(cyclopropylmethyl)-8-methoxy-11-methyl-1,2,3,4,5,6-hexahydro-2,6-methanobenzo[d]azocin-6-yl)butan-1-ol]	3420 ± 763	0.296	71.3	7.15 ± 0.86	16.2 ± 3.05	–	–	–	–	–	–	–	–	–
C[C@H]1[C@H]2Cc3ccc(O)cc3[C@]1(CCOc1cncc(C(=O)O)c1)CCN2CC1CC1 [Compound 16, 5-(2-((2R,6S,11R)-3-(cyclopropylmethyl)-8-hydroxy-11-methyl-1,2,3,4,5,6-hexahydro-2,6-methanobenzo[d]azocin-6-yl)ethoxy)nicotinic acid]	–	–	60.7	–	0.0625 ± 0.011	6.85 ± 1.48	0.0679	26	0.00895	37.8	0.00248	12.6 ± 2.11	–	–
COc1ccc2c(c1)[C@@]1(CCCc3ccco3)CCN(CC3CC3)C(C2)C1C (stereo in doubt) [Compound 15, (2R,6S,11S)-3-(cyclopropylmethyl)-6-(3-(furan-2-yl)propyl)-8-methoxy-11-methyl-1,2,3,4,5,6-hexahydro-2,6-methanobenzo[d]azocine]	–	–	82.3	–	0.736 ± 0.196	389 ± 90.2	0.104	34.6	0.303	67	0.143	2.11 ± 0.22	–	–
COc1ccc2c(c1)[C@@]1(C[C@H](O)CO)CCN(CC3CC3)C(C2)[C@@H]1C [Compound 6, (2S)-3-((6R,11R)-3-(cyclopropylmethyl)-8-methoxy-11-methyl-1,2,3,4,5,6-hexahydro-2,6-methanobenzo[d]azocin-6-yl)propane-1,2-diol]	3340 ± 895	3.09	69.3	46.4 ± 9.7	–	–	–	–	–	–	–	–	> 20	–
COc1ccc2c(c1)[C@@]1(CCCCNCC(C)C)CCN(CC3CC3)C(C2)[C@@H]1C [Compound 9, 4-((6S,11R)-3-(cyclopropylmethyl)-8-methoxy-11-methyl-1,2,3,4,5,6-hexahydro-2,6-methanobenzo[d]azocin-6-yl)-N-isobutylbutan-1-amine]	–	–	103	–	–	448 ± 113	0.0582	60	0.643	–	–	1.35 ± 0.57	–	–
CC(C)CN1CC[C@@]2(CCCC(N)=O)c3cc(O)ccc3C[C@@H]1[C@@H]2C [Compound 18, 4-((2R,6R,11R)-8-hydroxy-3-isobutyl-11-methyl-1,2,3,4,5,6-hexahydro-2,6-methanobenzo[d]azocin-6-yl)butanamide]	–	–	43	–	0.155 ± 0.0447	19.8 ± 0.68	0.00714	25.3	0.00912	74.3	0.081	0.51 ± 0.05	–	–
COc1ccc2c(c1)[C@@]1(CCCCOCc3ccccc3)CCN(CC3CC3)C(C2)[C@@H]1C [Compound 12, (6S,11R)-6-(4-(benzyloxy)butyl)-3-(cyclopropylmethyl)-8-methoxy-11-methyl-1,2,3,4,5,6-hexahydro-2,6-methanobenzo[d]azocine]	–	–	97.7	–	–	166 ± 51.8	0.0144	30.8	0.58	–	–	0.27 ± 0.01	–	–
C[C@H]1C2Cc3ccc(O)cc3[C@@]1(CCCC(N)=O)CCN2CC1CC1 [Compound 2, 4-((6S,11R)-3-(cyclopropylmethyl)-8-hydroxy-11-methyl-1,2,3,4,5,6-hexahydro-2,6-methanobenzo[d]azocin-6-yl)butanamide]	–	–	67.3	–	–	10.7 ± 1.82	0.00898	–	–	–	–	0.49 ± 0.11	–	> 20
C[C@H](NC(=O)C[C@@]12CCN(CC3CC3)C(Cc3ccc(O)cc31)[C@@H]2C)C(N)=O [Compound 1, (2S)-2-(2-((6R,11R)-3-(cyclopropylmethyl)-8-hydroxy-11-methyl-1,2,3,4,5,6-hexahydro-2,6-methanobenzo[d]azocin-6-yl)acetamido)propanamide]	–	–	31.3	–	–	31.7 ± 6.24	0.00891	–	–	–	–	1.48 ± 0.27	–	> 20
COc1ccc2c(c1)[C@@]1(CCCC(=O)N[C@@H](C)C(N)=O)CCN(CC3CC3)C(C2)[C@@H]1C [Compound 14, N—((S)-1-amino-1-oxopropan-2-yl)-4-((6S,11R)-3-(cyclopropylmethyl)-8-methoxy-11-methyl-1,2,3,4,5,6-hexahydro-2,6-methanobenzo[d]azocin-6-yl)butanamide]	–	–	63	–	–	4270 ± 1360	1.05	64	1.3	–	–	44 ± 17.7	–	–
C[C@H](NC(=O)CCC[C@]12CCN(CC3CC3)[C@H](Cc3ccc(O)cc31)[C@@H]2C)C(N)=O [Compound 22, N—((S)-1-amino-1-oxopropan-2-yl)-4-((2R,6R,11R)-3-(cyclopropylmethyl)-8-hydroxy-11-methyl-1,2,3,4,5,6-hexahydro-2,6-methanobenzo[d]azocin-6-yl)butanamide]	–	–	53.3	–	–	6.33 ± 1.54	0.0132	22.3	0.0007	–	–	0.41 ± 0.08	–	–
